Blank lines part the entries; values can stand above or below the molecule they belong to.
Key:
SYT1C2A = biological target: T1, SYT1C2A (Arabidopsis thaliana, UniProt Q9SKR2); test: thermal shift, label-free nanoDSF (Tycho NT.[…]); type: binding; settings: 58 μM ligand, 5.8 μM protein, 20 μM EGTA, Tris-HCl pH 8.0; absolute inflexion temperature, unbound control 57.4 ± 0.5; polybasic site
T1 construct: gene SYT1; C2A domain, residues K253-E397; pGEX6P1, GST tag cleaved with PreScission protease; expressed in E. coli Rosetta 2 (DE3) pLysS
T1 sequence (Q9SKR2 253-397): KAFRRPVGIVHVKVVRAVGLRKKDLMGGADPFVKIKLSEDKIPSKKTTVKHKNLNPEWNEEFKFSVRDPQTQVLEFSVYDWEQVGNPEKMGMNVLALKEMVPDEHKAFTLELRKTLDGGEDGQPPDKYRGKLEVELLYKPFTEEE

[1] = biological target: the molecule itself; test: SAXS (SEC-SAXS); 45 ul of SYT1SMPC2A at 6.6 mg ml^-1 injected onto Superdex 200 increase 3.2/300 at 20°C; 20 mM Tris pH 8, 100 mM NaCl, 5% glycerol, 2 mM DTT; molecular mass from the Porod volume

Molecule: O=P(O)(O)O[C@H]1[C@H](O)[C@@H](O)[C@H](OP(=O)(O)O)[C@@H](OP(=O)(O)O)[C@H]1O [IP(1,3,4), inositol 1,3,4-trisphosphate]
SYT1C2A (SYT1C2A): 64.2 ± 0.1 °C

Molecule: O=P(O)(O)O[C@@H]1[C@@H](OP(=O)(O)O)[C@H](OP(=O)(O)O)[C@@H](O)[C@@H](O)[C@H]1OP(=O)(O)O [IP(1,4,5,6), inositol 1,4,5,6-tetraphosphate]
SYT1C2A (SYT1C2A): 62.6 ± 0.2 °C

Molecule: O=P(O)(O)O[C@H]1[C@H](OP(=O)(O)O)[C@@H](OP(=O)(O)O)[C@@H](O)[C@@H](O)[C@@H]1OP(=O)(O)O [IP(3,4,5,6), inositol 3,4,5,6-tetraphosphate]
SYT1C2A (SYT1C2A): 65.2 ± 0.4 °C

B1: SYT1-SMPC2A (Arabidopsis synaptotagmin 1, SMP and C2A domains, residues N34-E397) (domain or fragment, UniProt Q9SKR2 34-397, looked up)
chain: NDVKDPEIRSIADQDPKAMLRMLPEIPLWVKNPDFDRVDWINRFLEYMWPYLDKAICKTAKNIAKPIIEEQIPKYKIDSVEFETLTLGSLPPTFQGMKVYLTDEKELIMEPCLKWAANPNILVAIKAFGLKATVQVVDLQVFAQPRITLKPLVPSFPCFANIYVSLMEKPHVDFGLKLGGADLMSIPGLYRFVQEQIKDQVANMYLWPKTLVVPILDPAKAFRRPVGIVHVKVVRAVGLRKKDLMGGADPFVKIKLSEDKIPSKKTTVKHKNLNPEWNEEFKFSVRDPQTQVLEFSVYDWEQVGNPEKMGMNVLALKEMVPDEHKAFTLELRKTLDGGEDGQPPDKYRGKLEVELLYKPFTEEE
notes: Expressed from pGEX6P1; also called SMP2C2A; source: E. coli Rosetta 2 (DE3) pLysS, purified (Glutathione Sepharose 4B, GST cleaved with Precission protease, Superdex 200)
stoichiometry N [1]: 2

Continued, values first:

SYT1C2A (SYT1C2A): 59.4 ± 0.2 °C
Molecule: O=P(O)(O)O[C@H]1[C@H](O)[C@@H](O)[C@H](OP(=O)(O)O)[C@@H](O)[C@H]1O [IP2, inositol 1,4-biphosphate]

SYT1C2A (SYT1C2A): 62.60 ± 0.05 °C
Molecule: O=P(O)(O)O[C@@H]1[C@H](O)[C@H](O)[C@@H](OP(=O)(O)O)[C@H](OP(=O)(O)O)[C@H]1O [IP3, inositol 1,4,5-trisphosphate]
